“And” between values parts separate entries of the source, which are not always exact repeats. Identical values can stand only once. Like-named read-outs stand apart in the source and are kept apart here.
Tests used:
[1] = test system: P. berghei-ANKA-GFP-LucCON liver stage parasites in HepG2-A16-CD81EGFP cells; assay: P. berghei liver stage Pb-Luc assay, Method 1 (UCSD, 1536-well); on Pb-Luc signal, 1 uM, repeat 1: reference of the scale not given here; on Pb-Luc signal, 1 uM, repeat 2: reference of the scale not given here; on Pb-Luc signal, 1 uM, repeat 3: reference of the scale not given here; on Pb-Luc signal, 3 uM, repeat 1: reference of the scale not given here; on Pb-Luc signal, 3 uM, repeat 2: reference of the scale not given here; on Pb-Luc signal, 3 uM, repeat 3: reference of the scale not given here; assay type: cell-based, Plasmodium berghei; settings: for Max Resp (signal direction of the dose response) / AC50 / Log AC50 (M): Method 1; for Max Resp (signal direction of the dose response): Decrease = decreasing P. berghei viability with dose, Increase = increasing signal, Inactive = no dose response; for activity at 1 µM / activity at 3 µM: 48 h, average of 2 wells, 1536-well plate; for activity at 1 µM: nominal 1 uM (10 mM stock), […] for 15 mM, 1.2 uM for 12 mM, 2 uM for 20 mM stock; for activity at 3 µM: nominal 3 uM (10 mM stock), 4.5 uM for 15 mM, 3.6 uM for 12 mM, 6 uM for 20 mM stock
[2] = test system: T1, Plasmodium falciparum Dd2-attB (parental line), asexual blood stages; assay: microbe, parasite or virus in culture; parameters: replicate k of 3 (each line is one of three independent assays; the three lines of one compound and parasite line follow each other); settings: n = 1; for Individual replicates / Log AC50 (M): 72 h
T1 construct: Dd2-attB, the isogenic parental line
Outline: (§1)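 Only some compounds were profiled here. Each was assayed three independent times against the Dd2-attB parent and its yeast-DHODH-overexpressing derivative.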

[3] = test system: T2, Plasmodium falciparum Dd2-attB-ScDHODH (transgenic line expressing yeast DHODH), asexual blood stages; assay: organism not typed; parameters: replicate k of 3 (each line is one of three independent assays; the three lines of one compound and parasite line follow each other); settings: 72 h, n = 1
T2 construct: Dd2-attB-ScDHODH, the transgenic line that expresses yeast DHODH
Outline: as §1

[4] = test system: luciferase-expressing P. berghei liver stage parasites in HepG2 cells; assay: Inhibition of liver-stage development assay (ILSDA), Method 2 (WRAIR, 96-well); assay type: cell-based, Plasmodium berghei; settings: for Max Resp (signal direction of the dose response): Decrease = decreasing P. berghei viability with dose, Increase = increasing signal, Inactive = no dose response
[5] = test system: Plasmodium falciparum Dd2 asexual blood stage parasites; assay: microbe, parasite or virus in culture; parameters: species or system Plasmodium falciparum Dd2 in human erythrocytes; single determination (one 11-point concentration-response curve); settings: Plasmodium falciparum, DD2, Erythrocyte, 72 h
in vitro = settings: human
[6] = Hill fit, 50% of maximum activity response, read-out: AC50
[7] = log10 of molar AC50 from Hill fit
[8] = Plasmodium berghei, Hill fit, 50% of maximum activity response, read-out: AC50
[9] = Plasmodium berghei, log10 of molar AC50 from Hill fit, read-out: Log AC50 (converted)
[10] = Plasmodium berghei, repeat 1, read-out: Pb-Luc signal, 1 uM, repeat 1
[11] = Plasmodium berghei, repeat 2, read-out: Pb-Luc signal, 1 uM, repeat 2
[12] = Plasmodium berghei, repeat 3, read-out: Pb-Luc signal, 1 uM, repeat 3
[13] = Plasmodium berghei, repeat 1, read-out: Pb-Luc signal, 3 uM, repeat 1
[14] = Plasmodium berghei, repeat 2, read-out: Pb-Luc signal, 3 uM, repeat 2
[15] = Plasmodium berghei, repeat 3, read-out: Pb-Luc signal, 3 uM, repeat 3
[16] = nominal 1 uM (10 mM stock), […] for 15 mM, 1.2 uM for 12 mM, 2 uM for 20 mM stock, average of 2 wells, repeat 2
[17] = nominal 3 uM (10 mM stock), 4.5 uM for 15 mM, 3.6 uM for 12 mM, 6 uM for 20 mM stock, average of 2 wells, repeat 2
[18] = HepG2-A16-CD81EGFP cells, uninfected
[19] = Plasmodium berghei, HepG2, Method 2, Hill fit, 50% of maximum activity response, read-out: AC50
[20] = Plasmodium berghei, HepG2, Method 2, log10 of molar AC50 from Hill fit, read-out: Log AC50 (converted)
[21] = P. berghei liver stage, Method 2, dose response
[22] = Plasmodium berghei, HepG2, P. berghei liver stage, Method 2, dose response, read-out: AC50
[23] = Plasmodium berghei, HepG2, P. berghei liver stage, Method 2, dose response, read-out: Log AC50 (converted)

Structure (SMILES) | Max Resp (signal direction of the dose response) [1] | AC50 [1, 8] [nM] | AC50 [1, 9] [nM] | Max Resp (signal direction of the dose response) ([4]; Method 2) | AC50 ([5]; read-out: AC50) [nM] | activity at 1 µM [1, 10] [%] | activity at 1 µM [1, 11] [%] | activity at 1 µM [1, 12] [%] | activity at 3 µM [1, 13] [%] | activity at 3 µM [1, 14] [%] | activity at 3 µM [1, 15] [%] | HepG2 viability signal, 1 uM, repeat 2 (HepG2-A16-CD81EGFP cells; [16]) [%] | HepG2 viability signal, 3 uM, repeat 2 (HepG2-A16-CD81EGFP cells; [17]) [%] | viability at 48 h, 1 µM (in vitro; [18]) [%] | viability at 48 h, 3 µM (in vitro; [18]) [%] | Activity direction (Decrease / Inactive) [4, 21] | further results
Cc1ccc(NC2=C(c3ccc(C(F)(F)F)cc3)C(=O)c3ccccc32)cc1F [NCGC00107266-01] | Decrease | 1260 | 1260 | Decrease | 1880 | – | – | – | – | – | – | – | – | – | – | – | AC50 [1, 6]: 1410 nM; Log AC50 (M) [1, 7]: -5.850 M; Individual replicates / Log AC50 (M) [2]: -6.2486 Log AC50 (M) and -6.2986 Log AC50 (M); AC50 ([2]; Plasmodium falciparum, DD2, 72 h, read-out: Individual replicates / Log AC50 (converted)): 399 nM; Individual replicates / Log AC50 (M) [3]: -5.4986 Log AC50 (M) and -5.1986 Log AC50 (M) and -5.3986 Log AC50 (M); AC50 ([4]; Method 2, Hill fit, 50% of maximum activity response, read-out: AC50): 79 nM; Log AC50 (M) ([4]; Method 2, log10 of molar AC50 from Hill fit): -7.100 M
COc1ccc(-n2nc(C)c([C@@H]3C=C[C@@H](NCc4cccc(Cl)c4)C3)c2C)cc1 [NCGC00391691-01] | Decrease | 1580 | 1580 | Decrease | 1370 | 41.3 | 40.5 | 39.6 | 11.5 | 13.5 | 12.4 | 103.31 | 96.15 | 104 | 102 | – | AC50 [1, 6]: 2000 nM; Log AC50 (M) [1, 7]: -5.700 M; AC50 [4, 19]: 1260 nM; AC50 [4, 20]: 1260 nM
CCC(CC)c1cc([C@H]2CN3CC[C@H]2C[C@@H]3CN[S+](=O)([O-])c2cccs2)nc(-c2ccncc2)n1 [NCGC00396883-01] | Decrease | 501 | 501 | Decrease | 2370 | 64 | 69 | 109 | 37.8 | 32.5 | 35.3 | – | – | – | – | – | AC50 [1, 6]: 708 nM; Log AC50 (M) [1, 7]: -6.150 M; HepG2 viability signal, 1 uM, repeat 2 (HepG2-A16-CD81EGFP cells; human, 48 h, 1 µM): 98.83%; HepG2 viability signal, 3 uM, repeat 2 (HepG2-A16-CD81EGFP cells; human, 48 h, 3 µM): 99.98%; viability at 48 h, 1 µM (in vitro): 99.7%; viability at 48 h, 3 µM (in vitro): 102%; AC50 [4, 19]: 631 nM; AC50 [4, 20]: 631 nM
COc1ccc(-c2ccc3ncc(Nc4ccc(C(N)=O)cc4)n3n2)cc1OC [NCGC00412552-01] | Inactive | – | – | Inactive | 2430 | 38.8 | 64.3 | 74.5 | 2.42 | 48.9 | 27.1 | 102.54 | 100.89 | 100 | 105 | – | –
COc1ccc(Nc2cnc3ccc(-c4ccc(OC)c(OC)c4)nn23)cc1 [NCGC00412624-01] | Decrease | 1410 | 1410 | – | 1720 | 3.08 | 5.39 | 3.47 | -0.46 | -0.86 | -0.14 | 100.79 | 112.23 | 101 | 109 | Inactive | –
COc1cc2c(cc1Oc1cccc(N(C)C)c1)NC(=O)C21CCN(c2cnccn2)CC1 [NCGC00416778-01] | Inactive | – | – | – | 1500 | 86.6 | 95.1 | 107 | 35 | 40 | 53.9 | – | – | – | – | Decrease | HepG2 viability signal, 1 uM, repeat 2 (HepG2-A16-CD81EGFP cells; human, 48 h, 1 µM): 94.98%; HepG2 viability signal, 3 uM, repeat 2 (HepG2-A16-CD81EGFP cells; human, 48 h, 3 µM): 87.34%; viability at 48 h, 1 µM (in vitro): 101%; viability at 48 h, 3 µM (in vitro): 89.7%; AC50 [4, 22]: 1000 nM; AC50 [4, 23]: 1000 nM
CCC(CC)c1cc([C@H]2CN3CC[C@H]2C[C@@H]3CNC(=O)COc2ccccc2)nc(-c2ccncc2)n1 [NCGC00420983-01] | Decrease | – | – | – | 1500 | 55.4 | 47 | 38 | 33.3 | 38.2 | 41 | 97.05 | – | 102 | 101 | Inactive | viability at 48 h, 3 µM (in vitro): 101%
Cc1cc(C)cc(C(=O)Nc2ccc3c(N4CCCC4)ncnc3c2)c1 [NCGC00425487-01] | – | 1000 | 1000 | – | 2370 | 67.5 | 99.6 | 77.5 | 25.9 | 34.2 | 15.9 | 92.65 | 36.60 | 89 | 27.1 | Decrease | AC50 [4, 22]: 15800 nM; AC50 [4, 23]: 15800 nM
O=C(Nc1ccc2c(N3CCOCC3)ncnc2c1)c1cccc(Br)c1 [NCGC00425561-01] | – | 1410 | 1410 | – | 4220 | 70.5 | 72.5 | 53.9 | 30.4 | 40.5 | 12.4 | 93.24 | 58.93 | 97.9 | 39.6 | – | Activity direction (Decrease / Inactive) [4]: Decrease; AC50 ([4]; Plasmodium berghei, HepG2): 31600 nM; AC50 ([4]; Plasmodium berghei, HepG2, read-out: Log AC50 (converted)): 31600 nM
Cc1ccccc1[S+](=O)([O-])N1CCCC(CCC(=O)NCCN(C)C2CCCCC2)C1 (centres unmarked) [NCGC00425745-01] | – | 1780 | 1780 | – | – | 72 | 61 | 64.9 | 42 | 57.8 | 54.8 | – | – | 112 | 109 | Decrease | HepG2 viability signal, 1 uM, repeat 2 (HepG2-A16-CD81EGFP cells): 108.18%; HepG2 viability signal, 3 uM, repeat 2 (HepG2-A16-CD81EGFP cells): 103.93%; AC50 [4, 22]: 562 nM; AC50 [4, 23]: 562 nM; AC50 [5]: 8410 nM
CCCN1C(CC(C)C)=N[S+](=O)([O-])c2cc(NC(=O)c3ccccc3Cl)ccc21 [NCGC00473218-01] | – | – | – | – | – | – | – | – | – | – | – | – | – | – | – | Inactive | Individual replicates / Log AC50 (M) [2]: -5.5486 Log AC50 (M) and -5.3986 Log AC50 (M) and -5.1986 Log AC50 (M); Individual replicates / Log AC50 (M) [3]: -5.0486 Log AC50 (M); AC50 ([3]; read-out: Individual replicates / Log AC50 (converted)): 7.97 µM
